Data reported in paper PMC3127118, “Characterization of a Deswapped Triple Mutant Bovine Odorant Binding Protein” (2011).

Target: T1, GCC-bOBP (monomeric triple mutant of bovine odorant binding protein) (Bos taurus, UniProt P07435, W64C/INS121G/H155C)
T1 construct: GCC-bOBP, deswapped monomeric triple mutant
T1 sequence (P07435 with tags, fused parts or gaps W64C/INS121G/H155C): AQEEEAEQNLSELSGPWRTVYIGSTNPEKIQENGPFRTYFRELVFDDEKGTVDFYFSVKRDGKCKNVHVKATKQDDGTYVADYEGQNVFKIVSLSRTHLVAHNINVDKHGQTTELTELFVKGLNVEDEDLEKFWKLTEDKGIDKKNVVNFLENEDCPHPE
Test: fluorescence titration (direct AMA fluorescence, excitation […] nm; FRET from Trp, excitation […] nm, gave Kd […]), pH […] °C

## Nc1cccc2cc3ccccc3cc12 [AMA, 1-aminoanthracene]
  Kd: 5 ± 0.2 µM
